Data from patent US10457710B2, “Antimicrobial peptides, their variants and uses” (priority 2015, dated 2019).
Where a SMILES comes first, the peptide text is derived from it. [ ]: non-standard residue; d: D form.

Key:
S. aureus RN4220 = assay type: cell-based; settings: antibiotic sensitive strain S. aureus RN4220
Procedure: (§1) Minimum inhibition concetrations (MICs) were determined against Escherichia coli (ATCC 25922), Staphylococcus aureus (ATCC 25923), Klebsiella pneumoniae (ATCC 10031) and Pseudomonas aeruginosa (ATCC 27853). Also clinical strains of E. coli, K. pneumoniae, E. cloacae, P. aeruginosa, Serratia marcescens, Proteus mirabilis, S. pneumoniae, Acinetobacter baumannii, A. johnsonii and S. aureus were used for MICs assays. Additionally, clinical strains of yeast including Candida albicans, C. glabrata, C. parapsilosis and C. quillermondiae were used. The susceptibility of these microorganisms to Chain peptides were determined using micro broth dilution assay. Colonies of the respective microorganism from Muller Hinton (MH) agar plates incubated overnight were suspended in MH broth media and final concentration of microorganism was adjusted to 5.0×10^5 cfu/ml. An aliquot of 10 μl of each Chain peptide, or gentamicin, tetracycline as reference antibiotics were added in differing concentrations along with 90 μl of bacterial suspension to 96 well polypropylene plates and incubated at 37° C. for 20 to 24 hours. Concentrations of Chain peptides and reference antibiotics ranged from 0.125 to 128 μg/ml and the MICs were recorded as the lowest concentration with no visual growth of bacteria. Similarly, antifungal MICs were tested in Potato dextrose broth.
(§2) Peptides Chain 104, Chain 105, Chain 201, Chain 308, Chain 310 were tested against antibiotic-sensitive strains of S. aureus RN4220 and methicillin resistant strains of S. aureus COL (MRSA). Chain peptides comprising of either L- or D-form amino acids were tested against these bacteria, and the D-form peptides were found have better activity compared to L-form (Table 6). Synergistic activity of chain peptides along with Ertapenem (4 μg/ml) was tested to know whether it will influence the activity against MRSA strains. […] Chain 310 has the best antibacterial activity against the MRSA strains with a MIC of 0.06 & 0.03 μg/ml along with Ertapenem (4 μg/ml) for both forms of L and D-peptides (Table 6).

MRSA strains = assay: MIC, synergistic activity with Ertapenem (4 μg/ml); assay type: cell-based, S. aureus; settings: S. aureus COL with 4 μg/ml Ertapenem (synergistic activity)
Procedure: as §2

[1] = test system: clinical strains of E. cloacae; assay: MIC, microdilution, clinical strains; assay type: cell-based; settings: 0.02% BSA, 0.2% acetic acid
Procedure: as §1
(§3) Clinical strains of yeasts including Candida albicans, C. glabrata, C. parapsilosis and C. quillermondiae were also tested with the 12 Chain peptides. The minimum inhibitory concentration (MICs) varied between these peptides and are presented in Tables 4a, 4b, 4c and 5a, 5b, 5c. Peptides Chain 105, 201 and 308 are broad spectrum antimicrobials with MICs between 0.5-32 μg/ml against all the bacteria and yeasts tested, except Serratia marcescens and Proteus mirabilis, against which the MICs were between 64-128 μg/ml. Peptide Chain 306 has narrow spectrum activity against E. coli at 1 μg/ml and for the rest of the bacterial strains at >32 μg/ml (FIG. 10c).

[2] = test system: clinical strains of E. coli; assay: MIC, microdilution, clinical strains; assay type: cell-based; settings: microdilution, Muller Hinton broth-cation adjusted, 0.02% BSA, 0.2% acetic acid
Procedure: as §1, §3

[3] = test system: clinical strains of K. pneumoniae; assay: MIC, microdilution, clinical strains; assay type: cell-based; settings: 0.02% BSA, 0.2% acetic acid
Procedure: as §1, §3

[4] = test system: clinical strains of P. aeruginosa; assay: MIC, microdilution, clinical strains; assay type: cell-based; settings: 0.02% BSA, 0.2% acetic acid
Procedure: as §1, §3

[5] = test system: clinical strains of Proteus mirabilis; assay: MIC, microdilution, clinical strains; assay type: cell-based; settings: 0.02% BSA, 0.2% acetic acid
Procedure: as §1, §3

[6] = test system: clinical strains of S. aureus; assay: MIC, microdilution, clinical strains; assay type: cell-based; settings: 0.02% BSA, 0.2% acetic acid
Procedure: as §1, §3

[7] = test system: clinical strains of S. pneumoniae; assay: MIC, microdilution, clinical strains; assay type: cell-based; settings: 0.02% BSA, 0.2% acetic acid
Procedure: as §1, §3

[8] = test system: clinical strains of Serratia marcescens; assay: MIC, microdilution, clinical strains; assay type: cell-based; settings: 0.02% BSA, 0.2% acetic acid
Procedure: as §1, §3

C. glabrata = assay: MIC, clinical yeast strains; assay type: cell-based
Procedure: as §1, §3

C. parapsilosis = assay: MIC, clinical yeast strains; assay type: cell-based
Procedure: as §1, §3

Candida albicans = assay: MIC, clinical yeast strains; assay type: cell-based
Procedure: as §1, §3

C. quillermondiae = assay: MIC, clinical yeast strains; assay type: cell-based; parameters: Minimum inhibitory concentration: unit: μg/ml; settings: C. quillermondiae clinical yeast strain 1
Procedure: as §1, §3

CC[C@@H](C)[C@@H](NC(=O)[C@@H](CCSC)NC(=O)[C@@H](C)NC(=O)[C@@H](CCCNC(=N)N)NC(=O)[C@@H](Cc1c[nH]c2ccccc12)NC(=O)[C@@H](CCCCN)NC(=O)[C@H](N)CCCNC(=N)N)C(=O)N[C@H](CCCNC(=N)N)C(=O)N[C@H](CC(C)C)C(=O)N[C@H](Cc1c[nH]cn1)C(=O)N[C@H](C)C(=O)N[C@H](CCCCN)C(=O)N[C@H](CCCNC(=N)N)C(=O)N[C@H](CC(C)C)C(=O)N[C@H](CCCNC(=N)N)C(=O)N[C@H](CCCCN)C(=O)O [104 D] (H-[dR][dK][dW][dR][dA][dM][dI][dR][dL][dH][dA][dK][dR][dL][dR][dK]-OH)
Minimum inhibitory concentration (MICs), S. aureus RN4220 (S. aureus RN4220): 64 µg/mL | Minimum inhibitory concentration (MICs), S. aureus COL + 4 μg/ml Ertapenem (MRSA strains): 4 µg/mL

CC[C@@H](C)[C@@H](NC(=O)[C@@H](CCSC)NC(=O)[C@@H](C)NC(=O)[C@@H](CCCNC(=N)N)NC(=O)[C@@H](Cc1c[nH]c2ccccc12)NC(=O)[C@@H](CCCCN)NC(=O)[C@H](N)CCCNC(=N)N)C(=O)N[C@H](CCCNC(=N)N)C(=O)N[C@H](CC(C)C)C(=O)N[C@H](Cc1c[nH]cn1)C(=O)N[C@H](C)C(=O)N[C@H](CCCCN)C(=O)N[C@H](Cc1c[nH]c2ccccc12)C(=O)N[C@H](CC(C)C)C(=O)N[C@H](CCCNC(=N)N)C(=O)N[C@H](CCCCN)C(=O)O [105 D] (H-[dR][dK][dW][dR][dA][dM][dI][dR][dL][dH][dA][dK][dW][dL][dR][dK]-OH)
Minimum inhibitory concentration (MICs), S. aureus RN4220 (S. aureus RN4220): 16 µg/mL | Minimum inhibitory concentration (MICs), S. aureus COL + 4 μg/ml Ertapenem (MRSA strains): 2 µg/mL

CC(C)C[C@@H](NC(=O)[C@H](N)CCCNC(=N)N)C(=O)N[C@H](CCCCN)C(=O)N[C@H](Cc1c[nH]c2ccccc12)C(=O)N[C@H](Cc1ccccc1)C(=O)N[C@H](Cc1c[nH]c2ccccc12)C(=O)N[C@H](CC(C)C)C(=O)N[C@H](Cc1ccccc1)C(=O)N[C@H](CCCNC(=N)N)C(=O)N[C@H](CCCCN)C(=O)N[C@H](CCCNC(=N)N)C(=O)O [Chain307D] (H-[dR][dL][dK][dW][dF][dW][dL][dF][dR][dK][dR]-OH)
Minimum inhibitory concentration ([1]; Enterobacter cloacae strain 1, Muller Hinton broth-cation adjusted): 4 | Minimum inhibitory concentration ([1]; Enterobacter cloacae strain 2, Muller Hinton broth-cation adjusted): 8 | Minimum inhibitory concentration ([1]; Enterobacter cloacae strain 3, Muller Hinton broth-cation adjusted): 4 | Minimum inhibitory concentration ([1]; Enterobacter cloacae strain 4, Muller Hinton broth-cation adjusted): 4 | Minimum inhibitory concentration ([1]; Enterobacter cloacae strain 5, Muller Hinton broth-cation adjusted): 4 | Minimum inhibitory concentration ([2]; Escherichia coli strain 1): 4 | Minimum inhibitory concentration ([2]; Escherichia coli strain 2): 4 | Minimum inhibitory concentration ([2]; Escherichia coli strain 3): 4 | Minimum inhibitory concentration ([2]; Escherichia coli strain 4): 2 | Minimum inhibitory concentration ([2]; Escherichia coli strain 5): 4 | Minimum inhibitory concentration ([3]; Klebsiella pneumoniae strain 1, Muller Hinton broth-cation adjusted): 8 | Minimum inhibitory concentration ([3]; Klebsiella pneumoniae strain 2, Muller Hinton broth-cation adjusted): 8 | Minimum inhibitory concentration ([3]; Klebsiella pneumoniae strain 3, Muller Hinton broth-cation adjusted): 16 | Minimum inhibitory concentration ([3]; Klebsiella pneumoniae strain 4, Muller Hinton broth-cation adjusted): 16 | Minimum inhibitory concentration ([3]; Klebsiella pneumoniae strain 5, Muller Hinton broth-cation adjusted): 4 | Minimum inhibitory concentration ([4]; Pseudomonas aeruginosa strain 1, Muller Hinton broth-cation adjusted): 16 | Minimum inhibitory concentration ([4]; Pseudomonas aeruginosa strain 2, Muller Hinton broth-cation adjusted): 16 | Minimum inhibitory concentration ([4]; Pseudomonas aeruginosa strain 3, Muller Hinton broth-cation adjusted): 16 | Minimum inhibitory concentration ([4]; Pseudomonas aeruginosa strain 4, Muller Hinton broth-cation adjusted): 8 | Minimum inhibitory concentration ([4]; Pseudomonas aeruginosa strain 5, Muller Hinton broth-cation adjusted): 8 | Minimum inhibitory concentration ([5]; Proteus mirabilis strain 1, Muller Hinton broth-cation adjusted): >128 | Minimum inhibitory concentration ([5]; Proteus mirabilis strain 2, Muller Hinton broth-cation adjusted): 128 | Minimum inhibitory concentration ([5]; Proteus mirabilis strain 3, Muller Hinton broth-cation adjusted): 128 | Minimum inhibitory concentration ([5]; Proteus mirabilis strain 4, Muller Hinton broth-cation adjusted): >128 | Minimum inhibitory concentration ([5]; Proteus mirabilis strain 5, Muller Hinton broth-cation adjusted): >128 | Minimum inhibitory concentration ([6]; Staphylococcus aureus strain 1, Muller Hinton broth-cation adjusted): 2 | Minimum inhibitory concentration ([6]; Staphylococcus aureus strain 2, Muller Hinton broth-cation adjusted): 2 | Minimum inhibitory concentration ([6]; Staphylococcus aureus strain 3, Muller Hinton broth-cation adjusted): 2 | Minimum inhibitory concentration ([6]; Staphylococcus aureus strain 4, Muller Hinton broth-cation adjusted): 2 | Minimum inhibitory concentration ([6]; Staphylococcus aureus strain 5, Muller Hinton broth-cation adjusted): 2 | Minimum inhibitory concentration ([7]; Streptococcus pneumoniae strain 1, Muller Hinton broth-cation adjusted): 4 | Minimum inhibitory concentration ([7]; Streptococcus pneumoniae strain 2, Muller Hinton broth-cation adjusted): 4 | Minimum inhibitory concentration ([7]; Streptococcus pneumoniae strain 3, Muller Hinton broth-cation adjusted): 4 | Minimum inhibitory concentration ([7]; Streptococcus pneumoniae strain 4, Muller Hinton broth-cation adjusted): 2 | Minimum inhibitory concentration ([7]; Streptococcus pneumoniae strain 5, Muller Hinton broth-cation adjusted): 2 | Minimum inhibitory concentration ([8]; Serratia marcescens strain 1, Muller Hinton broth-cation adjusted): >128 | Minimum inhibitory concentration ([8]; Serratia marcescens strain 2, Muller Hinton broth-cation adjusted): >128 | Minimum inhibitory concentration ([8]; Serratia marcescens strain 3, Muller Hinton broth-cation adjusted): 128 | Minimum inhibitory concentration ([8]; Serratia marcescens strain 4, Muller Hinton broth-cation adjusted): >128 | Minimum inhibitory concentration ([8]; Serratia marcescens strain 5, Muller Hinton broth-cation adjusted): >128 | Minimum inhibitory concentration (C. glabrata; C. glabrata clinical yeast strain 1): 8 | Minimum inhibitory concentration (C. glabrata; C. glabrata clinical yeast strain 2): 16 | Minimum inhibitory concentration (C. glabrata; C. glabrata clinical yeast strain 3): 8 | Minimum inhibitory concentration (C. glabrata; C. glabrata clinical yeast strain 4): 16 | Minimum inhibitory concentration (C. parapsilosis; C. parapsilosis clinical yeast strain 1): 16 | Minimum inhibitory concentration (C. parapsilosis; C. parapsilosis clinical yeast strain 2): 8 | Minimum inhibitory concentration (C. parapsilosis; C. parapsilosis clinical yeast strain 3): 8 | Minimum inhibitory concentration (C. parapsilosis; C. parapsilosis clinical yeast strain 4): 8 | Minimum inhibitory concentration (Candida albicans; Candida albicans clinical yeast strain 1): 16 | Minimum inhibitory concentration (Candida albicans; Candida albicans clinical yeast strain 2): 16 | Minimum inhibitory concentration (Candida albicans; Candida albicans clinical yeast strain 3): 16 | Minimum inhibitory concentration (Candida albicans; Candida albicans clinical yeast strain 4): 16 | Minimum inhibitory concentration (Candida albicans; Candida albicans clinical yeast strain 5): 16 | Minimum inhibitory concentration (C. quillermondiae): 4
